In ChEMBL document CHEMBL1201862, “PubChem BioAssay data set” (2004):
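The compound was tested at five concentrations on cells cultured in 96-well plates, with a 48-hour exposure period. GI50 = concentration required for 50% inhibition of growth.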 Calls of active or inactive are those of the source. No stated cut-off is given here; in the data, active = GI50 up to about 1.1 µM and inactive = higher.

What was measured:
Test in all cases: NCI-60 cell line screen, 48 h
[1] = test system: SN12C
[2] = test system: NCI/ADR-RES
[3] = test system: HT-29
[4] = test system: UACC-62
[5] = test system: CCRF-CEM
[6] = test system: T47D
[7] = test system: M14
[8] = test system: COLO 205
[9] = test system: OVCAR-4
[10] = test system: TK-10
[11] = test system: NCI-H226
[12] = test system: OVCAR-5
[13] = test system: A498
[14] = test system: SNB-19
[15] = test system: LOX IMVI
[16] = test system: OVCAR-3
[17] = test system: KM12
[18] = test system: 786-0
[19] = test system: PC-3
[20] = test system: HCT-15
[21] = test system: IGROV-1
[22] = test system: EKVX
[23] = test system: DU-145
[24] = test system: UACC-257
[25] = test system: SK-MEL-28
[26] = test system: CAKI-1
[27] = test system: UO-31
[28] = test system: RPMI-8226
[29] = test system: MCF7
[30] = test system: MOLT-4
[31] = test system: SF-268
[32] = test system: U-251
[33] = test system: A549
[34] = test system: NCI-H460
[35] = test system: HL-60
[36] = test system: Hs-578T
[37] = test system: MDA-MB-231
[38] = test system: OVCAR-8
[39] = test system: Malme-3M
[40] = test system: SNB-75
[41] = test system: K562
[42] = test system: HCT-116
[43] = test system: HOP-62
[44] = test system: ACHN
[45] = test system: SW-620
[46] = test system: BT-549
[47] = test system: SF-295
[48] = test system: MDA-MB-435
[49] = test system: SK-MEL-5
[50] = test system: SK-OV-3
[51] = test system: NCI-H23
[52] = test system: SF-539
[53] = test system: RXF 393
[54] = test system: HOP-92
[55] = test system: MDA-N
[56] = test system: SK-MEL-2
[57] = test system: SR
[58] = test system: NCI-H522
[59] = test system: HCC 2998

Measured: GI50

Cc1nn(-c2ccccc2)c(C)c1/C=N/N=C1\S/C(=C\c2ccc(Cl)cc2)C(=O)N1c1ccccc1
9.89 µM: [20]
inactive: [1] > 100 µM | [2] 17.2 µM | [3] 16.6 µM | [4] 16.8 µM | [5] > 100 µM | [6] > 100 µM | [7] > 100 µM | [8] > 100 µM | [9] 2.15 µM | [10] 14.2 µM | [11] > 100 µM | [12] > 100 µM | [13] > 100 µM | [14] 48.8 µM | [15] > 100 µM | [16] > 100 µM | [17] 7.67 µM | [18] 3.13 µM | [19] > 100 µM | [21] 5.83 µM | [22] > 100 µM | [23] > 100 µM | [24] > 100 µM | [25] > 100 µM | [26] > 100 µM | [27] > 100 µM | [28] 26.4 µM | [29] 17.3 µM | [30] 14.2 µM | [31] 51.5 µM | [32] 10.9 µM | [33] 10.7 µM | [34] > 100 µM | [35] 11.8 µM | [36] 5.65 µM | [37] 34.7 µM | [38] 40.3 µM | [39] 28.1 µM | [40] 11.6 µM | [41] 7.91 µM | [42] 9.48 µM | [43] 20.1 µM | [44] 68.7 µM | [45] 9.2 µM | [46] > 100 µM | [47] > 100 µM | [48] 32 µM | [49] > 100 µM | [50] > 100 µM | [51] 7.38 µM | [52] > 100 µM | [53] 12.6 µM | [54] 91 µM | [55] 62.5 µM | [56] > 100 µM

O=c1oc2ccccc2c2nc3ccccc3cc12
> 100 µM: [20]
inactive: [1] 99.1 µM | [2] 97.7 µM | [3] 99.5 µM | [4] 35.3 µM | [57] > 100 µM | [5] > 100 µM | [6] > 100 µM | [7] > 100 µM | [8] > 100 µM | [9] 22.1 µM | [10] 58.7 µM | [11] 37.4 µM | [12] > 100 µM | [13] 33 µM | [14] 23.3 µM | [17] > 100 µM | [18] 28.2 µM | [19] 56.2 µM | [21] 35 µM | [58] 46.2 µM | [22] 79.8 µM | [23] > 100 µM | [24] 96.6 µM | [25] > 100 µM | [26] 33.8 µM | [27] 34.8 µM | [28] > 100 µM | [30] > 100 µM | [31] > 10 µM | [32] 30.1 µM | [33] 99.8 µM | [34] 37.8 µM | [59] 72.1 µM | [35] > 100 µM | [36] 25.9 µM | [37] 23 µM | [38] 46.7 µM | [39] > 100 µM | [41] > 100 µM | [42] 40.2 µM | [44] 31 µM | [45] > 100 µM | [46] 51.2 µM | [47] 34.8 µM | [48] > 100 µM | [49] > 100 µM | [50] 51.9 µM | [51] > 100 µM | [52] 11.6 µM | [53] 29.2 µM | [54] 31.3 µM | [55] > 100 µM | [56] > 100 µM

C=C1c2ccccc2Oc2nc3nc(N)c(C#N)c(N)c3c(N)c21
16.9 µM: [20]
inactive: [1] 37.6 µM | [2] 28.4 µM | [3] 23.1 µM | [4] 35.7 µM | [5] 23.7 µM | [6] 51.1 µM | [7] 29.6 µM | [8] 19.6 µM | [9] 42.6 µM | [10] 39.1 µM | [11] 20.1 µM | [12] 85.5 µM | [13] > 100 µM | [14] 40.7 µM | [15] 24.5 µM | [16] 16.6 µM | [17] 18.6 µM | [18] 27 µM | [19] 19.3 µM | [21] 2.39 µM | [22] 11.9 µM | [23] 43.7 µM | [24] 53.1 µM | [25] 41.8 µM | [26] 30.8 µM | [27] 25.2 µM | [28] 24.4 µM | [29] 14.6 µM | [30] 23.7 µM | [31] 21.6 µM | [32] 30.2 µM | [33] 30.1 µM | [34] 16 µM | [59] 19.5 µM | [35] 21.6 µM | [36] 21.9 µM | [37] 47.6 µM | [38] 16.4 µM | [39] 22.8 µM | [40] 24.5 µM | [41] 40.7 µM | [42] 22.9 µM | [43] 19.1 µM | [44] 40.5 µM | [45] 30.5 µM | [46] 39.9 µM | [47] 30.3 µM | [48] 30.5 µM | [49] 17.6 µM | [50] 24.1 µM | [51] 18 µM | [52] 20 µM | [53] 58.1 µM | [54] 55.2 µM | [55] 38.4 µM | [56] 17.8 µM
